The values below come from patent JP2009132645A, “アシル化ハイドロキノン配糖体及びそれを含有する皮膚外用剤” (Pola Chemical Industries Inc, priority 2007, dated 2009).

Bounds are passed on as bounds.

This series is described as follows: Cytotoxicity in normal human epidermal melanocytes (trypan blue). The conditions noted are these: 2 days culture, 0.5% trypan blue, concentration not given, read-out: cytotoxicity (judgement by cell death rate). The class given is cell-based.

Take `CCCCCCCCCCC(=O)OC[C@H]1O[C@@H](Oc2ccc(O)cc2)[C@H](O)[C@@H](O)[C@@H]1O` [比較化合物1, 6−O−ウンデカノイルアルブチン]: the cytotoxicity at 48 h was above 50%.
